Assay results as given in US9802927B2, “Oxadiazine compounds and methods of use thereof” (Denali Therapeutics, Inc., priority 2015, dated 2017).

tested on: Aβ42; experiment: In vitro cell screening assay in H4 cells expressing human APP751: Aβ42 by sandwich ELISA; format: cell-based; settings: Homo sapiens, compounds 0.003-10 μM, incubated overnight (16-18 h), sandwich ELISA of supernatant
Procedure: Human neuroglioma H4 cells were transfected with a pcDNA3.1 plasmid expressing human wild type APP751 cDNA and a stable cell line was generated using G418 selection. Cells were plated at 15,000 cells/well in Costar 96-well plates and placed at 37° C. and 5% CO2. Six hours after plating, cells were washed three times with Pro293™ chemically defined medium, followed by addition of compounds (0.003-10 μM, final DMSO concentration of 0.33%). Plates were incubated overnight (16-18 h) and supernatant was removed for quantification of Aβ peptides by sandwich ELISA. Cytotoxicity was evaluated using Cell-Titer 96W AQueous One Solution Cell Proliferation Assay according to the manufacturer's protocol.
Aβ peptide levels were quantified by sandwich ELISA. 96-well plates were coated with C-terminal specific Aβ antibodies recognizing either Aβ37, Aβ38, Aβ40, Aβ42, Aβ43 or a N-terminal specific Aβ antibody to detect Aβ 1-x. Plates were then blocked overnight at 4° C. with 1% bovine serum albumin (BSA) in PBS-T. Plates were washed and 100 μl of cultured cell supernatant or synthetic Aβ peptide standards and a detection antibody (4G8-HRP) were applied to the blocked plate and incubated overnight at 4° C. The next day, wells were washed before the addition of detection substrate (TMB peroxidase). Plates were then read for absorbance at 450 nm on a Molecular Devices SpectraMax M5e Microplate Reader.
Compound-treated samples were normalized to samples treated with DMSO alone (no inhibition) and to samples treated with DAPT. EC50 values were calculated from values reported as percent of DMSO controls using nonlinear regression, based on a sigmoidal dose response (variable slope) model. GraphPAD software from Prism used for calculation.

Compound | EC50
COc1nc(C2=NOCC(C3CCC(F)(F)CC3)N2)ccc1-n1cnc(C)c1 (single isomer, unassigned; (+)) [Example 139B, (+)-5-(4,4-difluorocyclohexyl)-3-(6-methoxy-5-(4-methyl-1H-imidazol-1-yl)pyridin-2-yl)-5,6-dihydro-4H-1,2,4-oxadiazine] | 201 nM
COc1nc(C2=NOCC(C)N2)ccc1-n1cnc(C)c1 (single isomer, unassigned; (+)) [Example 149A, (+)-3-(6-methoxy-5-(4-methyl-1H-imidazol-1-yl)pyridin-2-yl)-5-methyl-5,6-dihydro-4H-1,2,4-oxadiazine] | > 3000 nM

same assay, conditions: compounds 0.003-10 μM, incubated overnight (16-18 h), sandwich ELISA of supernatant

Compound | EC50
COc1nc(C2=NOCC(c3cc(F)cc(F)c3)N2)ccc1-n1cnc(C)c1 (single isomer, unassigned; (+)) [Example 81B, (+)-5-(3,5-difluorophenyl)-3-(6-methoxy-5-(4-methyl-1H-imidazol-1-yl)pyridin-2-yl)-5,6-dihydro-4H-1,2,4-oxadiazine] | 43.1 nM
COc1nc(C2=NOCC(c3cc4cc(F)ccc4o3)N2)ccc1-n1cnc(C)c1 (single isomer, unassigned; (+)) [Example 84B, (+)-5-(5-fluorobenzofuran-2-yl)-3-(6-methoxy-5-(4-methyl-1H-imidazol-1-yl)pyridin-2-yl)-5,6-dihydro-4H-1,2,4-oxadiazine] | 29.7 nM
COc1nc(C2=NOCC(c3cc4cccc(F)c4o3)N2)ccc1-n1cnc(C)c1 (single isomer, unassigned; (+)) [Example 89B, (+)-5-(7-fluorobenzofuran-2-yl)-3-(6-methoxy-5-(4-methyl-1H-imidazol-1-yl)pyridin-2-yl)-5,6-dihydro-4H-1,2,4-oxadiazine] | 44.2 nM
COc1nc(C2=NOCC(c3cc(F)c(F)c(F)c3)N2)ccc1-n1cnc(C)c1 (single isomer, unassigned; (+)) [Example 91B, (+)-3-(6-methoxy-5-(4-methyl-1H-imidazol-1-yl)pyridin-2-yl)-5-(3,4,5-trifluorophenyl)-5,6-dihydro-4H-1,2,4-oxadiazine] | 36.5 nM
COc1nc(C2=NOCC(c3ccc(OC(F)F)cc3)N2)ccc1-n1cnc(C)c1 (single isomer, unassigned; (+)) [Example 93B, (+)-5-(4-(difluoromethoxy)phenyl)-3-(6-methoxy-5-(4-methyl-1H-imidazol-1-yl)pyridin-2-yl)-5,6-dihydro-4H-1,2,4-oxadiazine] | 73 nM
COc1nc(C2=NOCC(c3cc4c(F)cccc4o3)N2)ccc1-n1cnc(C)c1 (single isomer, unassigned; (+)) [Example 99A, (+)-5-(4-fluorobenzofuran-2-yl)-3-(6-methoxy-5-(4-methyl-1H-imidazol-1-yl)pyridin-2-yl)-5,6-dihydro-4H-1,2,4-oxadiazine] | 856 nM
COc1nc(C2=NOCC(c3ccc(F)c(Cl)c3)N2)ccc1-n1cnc(C)c1 (single isomer, unassigned; (+)) [Example 108B, (+)-5-(3-chloro-4-fluorophenyl)-3-(6-methoxy-5-(4-methyl-1H-imidazol-1-yl)pyridin-2-yl)-5,6-dihydro-4H-1,2,4-oxadiazine] | 23.2 nM
COc1nc(C2=NOCC(c3cccc(C(F)(F)F)c3)N2)ccc1-n1cnc(C)c1 (single isomer, unassigned; (+)) [Example 113B, (+)-3-(6-methoxy-5-(4-methyl-1H-imidazol-1-yl)pyridin-2-yl)-5-(3-(trifluoromethyl)phenyl)-5,6-dihydro-4H-1,2,4-oxadiazine] | 43 nM
COc1nc(C2=NOCC(c3ccc(C4CC4)cc3)N2)ccc1-n1cnc(C)c1 (single isomer, unassigned; (+)) [Example 116B, (+)-5-(4-cyclopropylphenyl)-3-(6-methoxy-5-(4-methyl-1H-imidazol-1-yl)pyridin-2-yl)-5,6-dihydro-4H-1,2,4-oxadiazine] | 38.8 nM
COc1nc(C2=NOCC(c3nn(C)c4ccccc34)N2)ccc1-n1cnc(C)c1 (single isomer, unassigned; (+)) [Example 124B, (+)-3-(6-methoxy-5-(4-methyl-1H-imidazol-1-yl)pyridin-2-yl)-5-(1-methyl-1H-indazol-3-yl)-5,6-dihydro-4H-1,2,4-oxadiazine] | 54.8 nM
COc1nc(C2=NOCC(c3cccc(C4CC4)c3)N2)ccc1-n1cnc(C)c1 (single isomer, unassigned; (+)) [Example 127B, (+)-5-(3-cyclopropylphenyl)-3-(6-methoxy-5-(4-methyl-1H-imidazol-1-yl)pyridin-2-yl)-5,6-dihydro-4H-1,2,4-oxadiazine] | 23 nM
COc1nc(C2=NOCC(c3ccccc3C)N2)ccc1-n1cnc(C)c1 (single isomer, unassigned; (+)) [Example 131A, (+)-3-(6-methoxy-5-(4-methyl-1H-imidazol-1-yl)pyridin-2-yl)-5-(o-tolyl)-5,6-dihydro-4H-1,2,4-oxadiazine] | 102 nM
COc1nc(C2=NOCC(c3cccc(C#N)c3)N2)ccc1-n1cnc(C)c1 (single isomer, unassigned; (+)) [Example 141B, (+)-3-(3-(6-methoxy-5-(4-methyl-1H-imidazol-1-yl)pyridin-2-yl)-5,6-dihydro-4H-1,2,4-oxadiazin-5-yl) benzonitrile] | 214 nM
COc1nc(C2=NOCC(C3CCOCC3)N2)ccc1-n1cnc(C)c1 (single isomer, unassigned; (+)) [Example 143B, (+)-3-(6-methoxy-5-(4-methyl-1H-imidazol-1-yl)pyridin-2-yl)-5-(tetrahydro-2H-pyran-4-yl)-5,6-dihydro-4H-1,2,4-oxadiazine] | 2460 nM
COc1cccc(C2CON=C(c3ccc(-n4cnc(C)c4)c(OC)n3)N2)c1 (single isomer, unassigned; (+)) [Example 145B, (+)-3-(6-methoxy-5-(4-methyl-1H-imidazol-1-yl)pyridin-2-yl)-5-(3-methoxyphenyl)-5,6-dihydro-4H-1,2,4-oxadiazine] | 197 nM
COc1nc(C2=NOCC(C(C)(C)C)N2)ccc1-n1cnc(C)c1 (single isomer, unassigned; (+)) [Example 147B, (+)-5-(tert-butyl)-3-(6-methoxy-5-(4-methyl-1H-imidazol-1-yl)pyridin-2-yl)-5,6-dihydro-4H-1,2,4-oxadiazine] | 1720 nM

Continued, values first:

EC50 | Compound
8.9 nM | COc1nc(C2=NOCC(c3cc4ccc(Cl)cc4o3)N2)ccc1-n1cnc(C)c1 (single isomer, unassigned; (+)) [Example 78B, (+)-5-(6-chlorobenzofuran-2-yl)-3-(6-methoxy-5-(4-methyl-1H-imidazol-1-yl)pyridin-2-yl)-5,6-dihydro-4H-1,2,4-oxadiazine]
10.4 nM | COc1nc(C2=NOCC(c3ccc(Cl)c(C)c3)N2)ccc1-n1cnc(C)c1 (single isomer, unassigned; (+)) [Example 86B, (+)-5-(4-chloro-3-methylphenyl)-3-(6-methoxy-5-(4-methyl-1H-imidazol-1-yl)pyridin-2-yl)-5,6-dihydro-4H-1,2,4-oxadiazine]
12.7 nM | COc1nc(C2=NOCC(c3cc4c(Cl)cccc4o3)N2)ccc1-n1cnc(C)c1 (single isomer, unassigned; (+)) [Example 96B, (+)-5-(4-chlorobenzofuran-2-yl)-3-(6-methoxy-5-(4-methyl-1H-imidazol-1-yl)pyridin-2-yl)-5,6-dihydro-4H-1,2,4-oxadiazine]
10.8 nM | COc1nc(C2=NOCC(c3oc4ccc(F)cc4c3C)N2)ccc1-n1cnc(C)c1 (single isomer, unassigned; (+)) [Example 101B, (+)-5-(5-fluoro-3-methylbenzofuran-2-yl)-3-(6-methoxy-5-(4-methyl-1H-imidazol-1-yl)pyridin-2-yl)-5,6-dihydro-4H-1,2,4-oxadiazine]
4.6 nM | COc1nc(C2=NOCC(c3cn(C)c4cc(F)c(C(F)(F)F)cc34)N2)ccc1-n1cnc(C)c1 (single isomer, unassigned; (+)) [Example 104B, (+)-5-(6-fluoro-1-methyl-5-(trifluoromethyl)-1H-indol-3-yl)-3-(6-methoxy-5-(4-methyl-1H-imidazol-1-yl)pyridin-2-yl)-5,6-dihydro-4H-1,2,4-oxadiazine]
22.9 nM | COc1nc(C2=NOCC(c3ccc(Cl)c(F)c3)N2)ccc1-n1cnc(C)c1 (single isomer, unassigned; (+)) [Example 106B, (+)-5-(4-chloro-3-fluorophenyl)-3-(6-methoxy-5-(4-methyl-1H-imidazol-1-yl)pyridin-2-yl)-5,6-dihydro-4H-1,2,4-oxadiazine]
22.6 nM | COc1nc(C2=NOCC(c3cc(F)cc(Cl)c3)N2)ccc1-n1cnc(C)c1 (single isomer, unassigned; (+)) [Example 111B, (+)-5-(3-chloro-5-fluorophenyl)-3-(6-methoxy-5-(4-methyl-1H-imidazol-1-yl)pyridin-2-yl)-5,6-dihydro-4H-1,2,4-oxadiazine]
9.9 nM | COc1nc(C2=NOCC(c3cc(Cl)cc(Cl)c3)N2)ccc1-n1cnc(C)c1 (single isomer, unassigned; (+)) [Example 118B, (+)-5-(3,5-dichlorophenyl)-3-(6-methoxy-5-(4-methyl-1H-imidazol-1-yl)pyridin-2-yl)-5,6-dihydro-4H-1,2,4-oxadiazine]
